What was measured:
[1] = molecular target: recombinant human SOS1 polypeptide (amino acids 560-1049) (Homo sapiens (Human), UniProt Q07889); experiment: biochemical; assay type: binding; settings: HTRF displacement, Cy5 labelled tracer, Morrison equation for competitive binding; read-out: Ki, Inhibition of Labeled Tracer Binding to SOS1
pERK in MKN1 cells = experiment: cells; assay type: cell-based; settings: Homo sapiens, MKN-1, pERK inhibition, In-Cell Western; MKN1 or H358 cells (Table 24 does not say which); 0.5-1 hour incubation; read-out: IC50
[2] = tested on: pERK in LXF289 cells (SOS1 N233Y); experiment: pERK inhibition in SOS1 N233Y mutant LXF289 cells (Example E); assay type: cell-based; settings: Homo sapiens, LXF-289, LXF289 cell line, 1 hour with compound
From the text: (§1) Three cell lines harboring SOS1 N233Y activation mutations, LXF289 (DSMZ, Leibniz Institute, Germany) RL95-2 (ATCC CRL-1671); and OCI AML-5 (DSMZ, Leibniz Institute, Germany) were used in the studies.

[3] = tested on: pERK in RL95-2 cells (SOS1 N233Y); experiment: pERK inhibition in SOS1 N233Y mutant RL95-2 cells (Example E); assay type: cell-based; settings: Homo sapiens, RL95-2 cell line, 1 hour with compound
From the text: as §1

[4] = tested on: pERK in OCI AML-5 cells (SOS1 N233Y); experiment: pERK inhibition in SOS1 N233Y mutant OCI AML-5 cells (Example E); assay type: cell-based; settings: Homo sapiens, OCI AML-5 cell line, 1 hour with compound
From the text: as §1

[5] = tested on: pERK in Kasuma-1 (Kasumi) cells (NF-1 mutant); experiment: pERK inhibition in NF-1 mutant Kasumi cells (Example F); assay type: cell-based; settings: 1 h, read-out: IC50, pERK inhibition
Experimental: (§2) The formaldehyde was discarded from the plates and 150 μL of ice-cold methanol was added to permeabilize the cells for 10 minutes at −20° C. The methanol was discarded from each of the plates and any liquid remaining in the plate by tapping the plate against paper towels. […] The plates were incubated overnight at 4° C. on a shaker.
(§3) On Assay day 2, the primary antibody solution was removed. […] The secondary antibody solution as removed and each plate was washed with PBST 3× times. Any liquid remaining was discarded and the plate was imaged using the Licor Odyssey machine according to the manufacturer's instruction, using a set focus length at 3 mm and both 800 nm and 700 nm filters. The GAPDH normalized scan values for each well were divided by the average of vehicle wells to get the % of pERK inhibition. The IC50 values were then calculated with the Graph pad Prism software.

[6] = tested on: pERK in NCI-H1435 cells (NF-1 mutant); experiment: pERK inhibition in NF-1 mutant NCI-H1435 cells (Example F); assay type: cell-based; settings: NCI-H1435, 1 h, read-out: IC50, pERK inhibition
Experimental: as §2, §3

Sequence of recombinant human SOS1 polypeptide (amino acids 560-1049) (Q07889 560-1049): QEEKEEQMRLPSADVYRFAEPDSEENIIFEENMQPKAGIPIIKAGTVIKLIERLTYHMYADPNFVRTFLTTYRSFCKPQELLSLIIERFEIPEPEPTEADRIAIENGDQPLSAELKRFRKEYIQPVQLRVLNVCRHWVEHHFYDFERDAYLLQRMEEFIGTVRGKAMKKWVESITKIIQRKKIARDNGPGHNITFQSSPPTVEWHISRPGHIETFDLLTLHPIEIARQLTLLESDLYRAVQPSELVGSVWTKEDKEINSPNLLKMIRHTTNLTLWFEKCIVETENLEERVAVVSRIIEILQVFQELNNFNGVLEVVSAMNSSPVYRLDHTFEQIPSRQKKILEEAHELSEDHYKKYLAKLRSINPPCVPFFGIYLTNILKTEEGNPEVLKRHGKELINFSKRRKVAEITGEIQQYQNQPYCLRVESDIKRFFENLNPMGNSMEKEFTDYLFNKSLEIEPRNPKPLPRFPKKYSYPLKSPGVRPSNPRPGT

`Cc1c([C@@H](C)Nc2nnc(C)c3ccc(N4CCn5nccc5C4)cc23)cccc1C(F)(F)F` [Example 6-10, (R)-7-(6,7-dihydropyrazolo[1,5-a]pyrazin-5(4H)-yl)-4-methyl-N-(1-(2-methyl-3-(trifluoromethyl)phenyl)ethyl)phthalazin-1-amine] was tested, and the Ki [1] was under 0.01 nM, the IC50 (pERK in MKN1 cells) was 271 nM and the IC50 [2] was 294 nM. It also gave an IC50 [3] of 214 nM, an IC50 [4] of 333 nM and an IC50 [5] of 902 nM. It also gave an IC50 [6] of 542 nM.
`Cc1c([C@@H](C)Nc2nnc(C)c3ccc(N4CCN(C(=O)C5CC5)CC4)cc23)cccc1C(F)(F)F` [Example 6-11, (R)-cyclopropyl(4-(1-methyl-4-((1-(2-methyl-3-(trifluoromethyl)phenyl)ethyl)amino)phthalazin-6-yl)piperazin-1-yl)methanone] gave a Ki [1] of 9.1 nM, an IC50 (pERK in MKN1 cells) of 31 nM and an IC50 [2] of 41 nM. The IC50 [3] was 20 nM, the IC50 [4] was 32 nM and the IC50 [5] was 97 nM. For the same molecule, the IC50 [6] was 65 nM.

— patent US11702418B2, “SOS1 inhibitors” (priority 2019, dated 2023)
